Holding throughout (type): cell-based
In experiment [1] the test system is Lactobacillus crispatus KC18-1173-1 to Streptococcus anginosus KC18-1131-3B. The experiment in a line: Competition (co-culture) assay: ratio of L. crispatus to S. anginosus recovered. Particulars: average CFU/mL L. crispatus on MRS divided by average CFU/mL S. anginosus on TSA, 48 hours. The protocol: (§1) The methods used herein were adapted from Vongsa et al. The method used in this particular example is as follows: • 1. A stock was created using a single prebiotic, a prebiotic mixture, or the positive control (glucose) in API 50 CHL media (Biomerieux, Marcy-l'Étoile, France). API 50 CHL media containing minimal amounts of carbon for growth and bromocresol purple as a pH indicator of fermentation. The stock media was filter-sterilized with a 0.22 μM filter and store at 4-6° C. • 2. From a freezer stock, the bacteria were subcultured twice into De Man, Rogosa, and Sharpe (MRS) broth (BD Difco, Becton Dickinson, Franklin Lakes, NJ) and incubated at 37° C. anaerobically overnight until stationary. • 3. The second MRS broth subculture was plated onto an MRS agar plate for Lactobacillus crispatus KC18-1173-1 or blood agar for Streptococcus anginosus KC18-1131-3B and incubated at 37° C. anaerobically overnight until stationary. • 4. A bacterial suspension was created for each bacterium using a sterile tipped swab to transfer colonies into API suspension media (Biomerieux, Marcy-l'Étoile, France) to reach the turbidity of a 2 MacFarland standard. • 5. The starting culture was enumerated. • 6. 9.8 mL of the prebiotic media was added into a sterile 15 mL conical tube. • 7. 100 μL of each prepared bacterial suspension was added to the media, and it was incubated anaerobically at 37° C. for 48 hours. • 8. 100 μL were harvested from each tube containing the bacteria and prebiotic media, it was serially diluted, and plated onto MRS agar and tryptic soy agar (TSA). • 9. The bacteria were enumerated on MRS agar (both L. crispatus and S. anginosus). Small colonies were counted as S. anginosus, and large colonies were counted as L. crispatus. • 10. S. anginosus was enumerated on TSA plates. […] Background growth of bacteria in the negative control (CHL media without prebiotics) was subtracted from the growth recovered in the presence of the prebiotic mixture. • 12. Statistical analysis was performed using Student's t-test. The significance level was set at p<0.05.

Experiment [2] concerns Streptococcus anginosus KC18-1131-3B. The experiment in a line: Competition (co-culture) assay: recovery of S. anginosus after exposure to prebiotics. As to conditions: 48 hours, one value per replicate; for S. anginosus Δ on MRS / S. anginosus Δ on TSA: change vs start, background growth in media without prebiotic subtracted, co-culture; for S. anginosus Recovered on MRS / S. anginosus Recovered on TSA: co-culture with L. crispatus in API 50 CHL media with prebiotic (% w/v in label), anaerobic 37° C. The protocol: as §1

The test system of experiment [3] is Lactobacillus crispatus KC18-1173-1. The experiment in a line: Competition (co-culture) assay: recovery of L. crispatus after exposure to prebiotics. Particulars: 48 hours, one value per replicate; for L. crispatus Δ on MRS: change vs start, background growth in media without prebiotic subtracted, co-culture; for L. crispatus Recovered on MRS: co-culture with S. anginosus in API 50 CHL media with prebiotic (% w/v in label), anaerobic 37° C. As for the experimental part: as §1

“And” between values parts separate entries of the source, which are not always exact repeats. Equal entries are not always repeated.

Turning to `OC[C@@H](O)[C@@H](O[C@H]1O[C@H](CO)[C@@H](O)[C@H](O)[C@H]1O)[C@H](O)[C@@H](O)CO` [Maltitol (2.0), Maltitol], the “Ratio (L. crispatus/S. anginosus)” value in experiment [1] came to 0. In experiment [2], the “S. anginosus Δ on MRS” value was −0.12 Log CFU/mL and −0.37 Log CFU/mL; the “S. anginosus Δ on TSA” value is 0.41 Log CFU/mL and 0.47 Log CFU/mL; the “S. anginosus Recovered on MRS” value is 6.58 Log CFU/mL and 6.48 Log CFU/mL; the “S. anginosus Recovered on TSA” value is 7.26 Log CFU/mL and 7.60 Log CFU/mL. Besides, in experiment [3], the “L. crispatus Δ on MRS” value is 0.35 Log CFU/mL and −0.08 Log CFU/mL; the “L. crispatus Recovered on MRS” value was 5.48 Log CFU/mL and 6.00 Log CFU/mL.
For `OC[C@@H](O)[C@@H](O[C@@H]1O[C@H](CO)[C@H](O)[C@H](O)[C@H]1O)[C@H](O)[C@@H](O)CO` [D-Lactitol (2.0), D-Lactitol], the “Ratio (L. crispatus/S. anginosus)” value in experiment [1] worked out at 0. Moreover, in experiment [2], the “S. anginosus Δ on MRS” value is 0.75 Log CFU/mL and 0.69 Log CFU/mL; the “S. anginosus Δ on TSA” value is 0.58 Log CFU/mL and 0.52 Log CFU/mL; the “S. anginosus Recovered on MRS” value was 7.45 Log CFU/mL and 7.54 Log CFU/mL; the “S. anginosus Recovered on TSA” value was 7.43 Log CFU/mL and 7.65 Log CFU/mL. In addition, in experiment [3], the “L. crispatus Δ on MRS” value is 0.77 Log CFU/mL and 0.66 Log CFU/mL; the “L. crispatus Recovered on MRS” value is 5.90 Log CFU/mL and 6.74 Log CFU/mL.
On to `CO[C@H]1O[C@H](CO)[C@@H](O)[C@H](O)[C@H]1O` [α-Methyl-D-Glucoside (2.0), α-Methyl-D-Glucoside], for which the “Ratio (L. crispatus/S. anginosus)” value in experiment [1] was determined as 0. Further, in experiment [2], the “S. anginosus Δ on MRS” value is −0.33 Log CFU/mL and 0.45 Log CFU/mL and 0.55 Log CFU/mL; the “S. anginosus Δ on TSA” value was 0.34 Log CFU/mL and 0.62 Log CFU/mL and 0.41 Log CFU/mL; the “S. anginosus Recovered on MRS” value was 5.60 Log CFU/mL and 7.15 Log CFU/mL and 7.40 Log CFU/mL; the “S. anginosus Recovered on TSA” value was 6.04 Log CFU/mL and 7.47 Log CFU/mL and 7.54 Log CFU/mL. Further, in experiment [3], the “L. crispatus Δ on MRS” value is 1.90 Log CFU/mL and 1.39 Log CFU/mL and 0.70 Log CFU/mL; the “L. crispatus Recovered on MRS” value was 7.20 Log CFU/mL and 6.52 Log CFU/mL and 6.78 Log CFU/mL.
In the case of `O=C(CO)[C@@H](O)[C@H](O)[C@H](O)CO[C@H]1O[C@H](CO)[C@@H](O)[C@H](O)[C@H]1O` [Palatinose ™ (2.0), 6-O-α-D-glucopyranosyl-D-fructose], the “Ratio (L. crispatus/S. anginosus)” value in experiment [1] was 2,681. For the same compound, in experiment [2], the “S. anginosus Δ on MRS” value is −1.83 Log CFU/mL and −2.08 Log CFU/mL and −2.03 Log CFU/mL and −1.82 Log CFU/mL and −1.69 Log CFU/mL; the “S. anginosus Δ on TSA” value is −1.48 Log CFU/mL and −2.41 Log CFU/mL and −2.00 Log CFU/mL and −2.42 Log CFU/mL and 2.39 Log CFU/mL; the “S. anginosus Recovered on MRS” value is 4.78 Log CFU/mL and 4.00 Log CFU/mL and 4.70 Log CFU/mL and 4.88 Log CFU/mL and 5.16 Log CFU/mL; the “S. anginosus Recovered on TSA” value is 5.00 Log CFU/mL and 4.04 Log CFU/mL and 4.70 Log CFU/mL and 4.53 Log CFU/mL and 4.74 Log CFU/mL. Also, in experiment [3], the “L. crispatus Δ on MRS” value was 2.10 Log CFU/mL and 2.30 Log CFU/mL and 2.77 Log CFU/mL and 3.24 Log CFU/mL and 1.90 Log CFU/mL; the “L. crispatus Recovered on MRS” value is 7.93 Log CFU/mL and 8.00 Log CFU/mL and 8.19 Log CFU/mL and 8.37 Log CFU/mL and 7.98 Log CFU/mL.
For the compound `OC[C@H]1O[C@@H](O[C@@H]2[C@@H](CO)OC(O)(CO)[C@H]2O)[C@H](O)[C@@H](O)[C@H]1O` (mixture of isomers) [Lactulose (2.0), Lactulose], the “Ratio (L. crispatus/S. anginosus)” value in experiment [1] is given as 37,556. Further, in experiment [2], the “S. anginosus Δ on MRS” value is −6.73 Log CFU/mL and −2.23 Log CFU/mL and −2.53 Log CFU/mL and −6.61 Log CFU/mL and −6.08 Log CFU/mL; the “S. anginosus Δ on TSA” value is −3.85 Log CFU/mL and −2.17 Log CFU/mL and −3.70 Log CFU/mL and −3.74 Log CFU/mL and −3.67 Log CFU/mL; the “S. anginosus Recovered on MRS” value is 0.00 Log CFU/mL (3×) and 4.11 Log CFU/mL and 3.40 Log CFU/mL; the “S. anginosus Recovered on TSA” value was 2.85 Log CFU/mL and 4.23 Log CFU/mL and 2.00 Log CFU/mL and 2.74 Log CFU/mL and 2.78 Log CFU/mL. Further, in experiment [3], the “L. crispatus Δ on MRS” value was 2.38 Log CFU/mL and 2.80 Log CFU/mL and 2.58 Log CFU/mL and 2.60 Log CFU/mL and 2.69 Log CFU/mL; the “L. crispatus Recovered on MRS” value is 7.74 Log CFU/mL and 8.10 Log CFU/mL and 8.28 Log CFU/mL and 8.30 Log CFU/mL and 8.11 Log CFU/mL.
Regarding `OC[C@H]1O[C@@](CO)(OC[C@@]2(O[C@H]3O[C@H](CO)[C@@H](O)[C@H](O)[C@H]3O)O[C@H](CO)[C@@H](O)[C@@H]2O)[C@@H](O)[C@@H]1O` [1-Kestose (2.0), 1-Kestose], in experiment [1], the “Ratio (L. crispatus/S. anginosus)” value was 976,001. Besides, in experiment [2], the “S. anginosus Δ on MRS” value is −6.61 Log CFU/mL and −6.08 Log CFU/mL and −5.03 Log CFU/mL and −3.64 Log CFU/mL and −3.63 Log CFU/mL; the “S. anginosus Δ on TSA” value was −3.74 Log CFU/mL and −6.45 Log CFU/mL and −4.15 Log CFU/mL and −4.00 Log CFU/mL (2×); the “S. anginosus Recovered on MRS” value is 0.00 Log CFU/mL (2×) and 1.70 Log CFU/mL and 2.70 Log CFU/mL and 2.30 Log CFU/mL; the “S. anginosus Recovered on TSA” value was 2.74 Log CFU/mL and 0.00 Log CFU/mL and 2.54 Log CFU/mL and 2.40 Log CFU/mL and 1.70 Log CFU/mL. Besides, in experiment [3], the “L. crispatus Δ on MRS” value was 2.59 Log CFU/mL and 3.60 Log CFU/mL and 2.30 Log CFU/mL and 1.95 Log CFU/mL and 2.74 Log CFU/mL; the “L. crispatus Recovered on MRS” value is 7.95 Log CFU/mL and 8.90 Log CFU/mL and 8.00 Log CFU/mL and 7.65 Log CFU/mL and 8.16 Log CFU/mL.

The values above are taken from patent US20260000694A1, “METHODS AND COMPOSITIONS RELATED TO PREBIOTIC FORMULATIONS USEFUL IN PROMOTING UROGENITAL HEALTH” (KIMBERLY-CLARK WORLDWIDE, INC., priority 2022, published 2026).
